Like-named read-outs stand apart in the source and are kept apart here.
How the values were obtained:
Assay type in all cases: cell-based
rat vas deferens = experiment: Effect on Rat Isolated Vas Deferens; conditions: for minimal effective concentration: read-out: threshold conc.; for Emax: read-out: max. effect, % of NA max.; for effect on rat vas deferens (in words): noradrenaline-like activity
Description: Effect on Rat Isolated Vas Deferens
Male albino rats weighing 250-350 g were anaesthetized with diethyl ether and then decapitated. The vas deferens was removed, freed from mesenteric attachments and then suspended in Kreb's bicarbonate solution (Hukovic, 1961). Threads were attached to both ends of the organ. The distal part was tied to a fixed pin in the organ bath and the proximal part to a force displacement transducer connected to a recording system. […] The load on the organ was adjusted to 0.5 g. The vas deferens was allowed to stabilize for 15 minutes before dose-response curves were obtained.
The technique for making cumulative dose-response curves in accordance with van Rossum (1963) was employed. The stimulating drug, noradrenaline (NA), was added to the bath in a manner to achieve geometrically increasing concentrations in the organ bath without washings in between. After each injection of NA the organ was allowed to contract until a state of equilibrium had been reached, and then the next dose of NA was added. This procedure was repeated until no further increase in contraction was obtained. The dosage of NA was adapted to give a concentration step in the bath of 1/2 log 10. The tested concentration interval was 10^-8 -10^-4 M, 3.10^-4 M plus maximum effect at 3 10^-5 and 10^-4 M. Compounds of formula I, identified as 2-12, and comparison compounds 13-15, were tested by the same technique. The compounds conform to the formula below except where indicated for other values of R^1, R^2 and R^3.

urethra strip (cat) = experiment: Effect on urethra strip of cat; conditions: Felis catus, isometric tension, Tyrode solution 37° C., pH 7.5
Procedure: (§1) Effect on urethra strip of cat and aortic strip of rabbit Adult male and female cats weighing 2-5 kg were used. The animals were anaesthetized with pentobarbital, 30-50 mg/kg intraperitoneally. An abdominal incision was made and the bladder and urethra were dissected free and cut. The bladder and urethra were placed in Tyrode solution of room temperature. Care was taken to keep the tissue moist during the preparation. The bladder was cut away and the urethra was cut longitudinally. Segments of 2-3 mm width were mounted in an organ-bath with Tyrode solution at 37° C. and connected to a strain gauge transducer so that the isometric tension could be recorded. The preparation was maintained at pH 7.5 by bubbling a mixture of 93.5 volume-% O2 and 6.5 volume-% CO2 through the solution. This experimental set up thus allowed the recording of circular muscle activity as isometric tension changes. The initial tension was set at approximately 0.5 g. After mounting, the preparation was allowed 1 hour for acclimatization before starting the experiment. All recordings were made from the base line. The drugs were added directly to the organ-baths and cumulative dose-response curves were recorded. Noradrenaline has consistently been used as a reference drug for agonistic action. The substances tested as agonists were noradrenaline bitartrate (NA) and the above compound No. 3. […]

aortic strip (rabbit) = experiment: Effect on aortic strip of rabbit; conditions: Oryctolagus cuniculus
Procedure: as §1

[1] = rat isolated vas deferens, contraction relative to noradrenaline maximum
[2] = rat isolated vas deferens, cumulative dose-response, 31° C.
[3] = Rattus norvegicus, rat isolated vas deferens, cumulative dose-response, 31° C.

Row | EC50 (rat vas deferens; [2]) [µM] | Compound | minimal effective concentration (rat vas deferens; [3]) [µM] | Emax (rat vas deferens; [1]) [%] | also measured
1 |  | 2-Pyrrolidino-1-[spiro)cyclopentane-1,1'-indene)-3'-yl]-ethanol [Example 5] |  |  | max. effect, % of NA max. (rat vas deferens; [1]): 50%; threshold conc. (rat vas deferens; [2]): 10^-5 - 10^-4 M
2 | 2 | CC1(C)C=C(C(O)CN)c2ccccc21 (stereo not drawn) [No. 8, 2-Amino-1-(1,1-dimethylindene-3-yl)ethanol] | 0.3 | 100 | 
3 | 4 | CC(C)NCC(O)C1=CC2(CCCC2)c2ccccc21 (stereo not drawn) [No. 6] |  | 90 | 
4 |  | CNCCC1=CC2(CCCC2)c2ccccc21 [No. 15, reference compound] |  |  | Emax (rat vas deferens; Rattus norvegicus): 0%; effect on rat vas deferens (in words) (rat vas deferens): effect disappears
5 | 30 | NC[C@H](O)c1ccc(O)c(O)c1 [No. 1, noradrenaline, reference compound] | 1 | 100 | EC50 (urethra strip (cat)): 27 µM; EC50 (aortic strip (rabbit)): 0.18 µM
6 |  | CN(C)CC(=O)C1=CC2(CCCC2)c2ccccc21 [No. 13, reference compound] |  | 0 | effect on rat vas deferens (in words) (rat vas deferens): inactive
7 |  | 2-Isopropylamino-1-[spiro(cyclopentane-1,1'-indene)-3'-yl]ethanol [Example 12] |  |  | max. effect, % of NA max. (rat vas deferens; [1]): 35%
8 | 15 | NCC(O)C1=CC2(CCCCC2)c2ccccc21 (stereo not drawn) [No. 9, 2-Amino-1-[spiro(cyclohexane-1,1'-indene)-3'-yl]ethanol] | 3 | 70 | 
9 |  | CNCC(O)C1CC2(CCCC2)c2ccccc21 (stereo not drawn) [No. 14, reference compound] |  | 0 | effect on rat vas deferens (in words) (rat vas deferens): effect disappears
10 | 50 | COc1ccc2c(c1)C(C(O)CN)=CC21CCCC1 (stereo not drawn) [No. 10, 2-Amino-1-[5'-methoxyspiro(cyclopentane-1,1'-indene)-3'-yl]-ethanol] | 5 | 65 | 
11 | 1.5 | CCNCC(O)C1=CC2(CCCC2)c2ccccc21 (stereo not drawn) [No. 4, 2-Ethylamino-1-[spiro(cyclopentane-1,1'-indene)-3'-yl]ethanol] | 0.5 | 85 | 
12 | 40 | NCC(O)C1=CC2(CCCC2)c2ccccc21 (stereo not drawn) [No. 2, 2-Amino-1-[spiro(cyclopentane-1,1'-indene)-3'-yl]ethanol] | 0.1 | 100 | 
13 |  | 2-tert.-Butylamino-1-[spiro(cyclopentane-1,1'-indene)-3'-yl]ethanol [Example 11] |  |  | max. effect, % of NA max. (rat vas deferens; [1]): 90%
14 | 15 | NCC(O)C1=CC2(CCC2)c2ccccc21 (stereo not drawn) [No. 7] |  | 120 | 
15 | 0.15 | CNCC(O)C1=CC2(CCCC2)c2ccccc21 (racemic) [No. 3, 2-Methylamino-1-[spiro(cyclopentane-1,1'-indene)-3'-yl]ethanol] | 0.03 | 100 | EC50 (urethra strip (cat)): 0.69 µM; EC50 (aortic strip (rabbit)): 0.045 µM
